Experimental findings from PMC12738692, “Identification, characterization, and structure-activity relationship of the ASIC3-selective peptide WRPRFa” (Communications Chemistry, 2025) are described below.

Common to all, as to type: cell-based
For one assay, the target named is T1, ASIC3 E416Q (Homo sapiens, UniProt Q9UHC3, E416Q).
T1 construct: human ASIC3 (NM_004769.4); P2A-mCherry reporter (C, cleaved yes); expressed in transfected cells; host or cells: CHO cells (85050302, Sigma), transient transfection
T1 sequence (Q9UHC3 1-531 E416Q): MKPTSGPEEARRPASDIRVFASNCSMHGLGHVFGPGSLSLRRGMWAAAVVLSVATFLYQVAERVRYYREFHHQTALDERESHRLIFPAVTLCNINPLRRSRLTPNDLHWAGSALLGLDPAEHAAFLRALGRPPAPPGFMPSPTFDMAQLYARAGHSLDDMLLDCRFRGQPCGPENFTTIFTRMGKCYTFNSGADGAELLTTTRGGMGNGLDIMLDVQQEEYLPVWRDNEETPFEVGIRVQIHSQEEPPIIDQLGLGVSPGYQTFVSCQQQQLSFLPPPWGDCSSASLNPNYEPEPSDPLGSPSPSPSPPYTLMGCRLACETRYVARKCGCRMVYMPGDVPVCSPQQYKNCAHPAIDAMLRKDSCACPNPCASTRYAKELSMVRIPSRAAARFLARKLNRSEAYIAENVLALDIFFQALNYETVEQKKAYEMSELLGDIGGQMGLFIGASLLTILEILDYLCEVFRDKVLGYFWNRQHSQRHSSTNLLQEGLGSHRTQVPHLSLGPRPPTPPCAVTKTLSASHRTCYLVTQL
As to the kind of experiment: MPC peptide activity on ASIC3 E416Q mutant (incl. double mutant cycle). The following applies: read-out: EC50 (95% CI). The protocol: We individually mutated the four glutamates to glutamine to remove their charge but maintain the side chain structure (Fig. 4C). We tested each mutant by incubating HEK cells stably expressing ASIC3 or CHO cells transfected with mutant ASIC3 with 30 µM WRPRFa before a pH 6.3 acid stimulus.
All mutagenesis was performed at Genscript, and sequences were verified by nanopore sequencing by Plasmidsaurus (Eugene, OR). The numbering of ASIC3 amino acids is based on RefSeq NP_004760.1. Plasmids were transfected into CHO cells using Lipofectamine 3000 (Thermo) according to the manufacturer’s protocol. Cells were used for patch-clamp recordings 24–48 h after transfection.
CHO and HEK cells were tested in the whole-cell configuration on MPC platforms using an Axopatch 200B amplifier (Axon Instruments, San Jose, CA) and a Digidata 1322A or Digidata 1440A digitizer (Axon) using pClamp 9.2 or 10.7 (Molecular Devices, San Jose, CA), respectively. When testing transfected cells, red fluorescence from the cleaved mCherry reporter was used to identify cells expressing ASIC3, ASIC131, or ASIC313. For cells expressing transfected ASIC1a or ASIC2a, the green signal from the cleaved eGFP reporter was used. All electrophysiology data were analyzed with Clampfit 11.1 (Molecular Devices).

Assay [1] addresses T2, human ASIC3 (Homo sapiens, UniProt Q9UHC3).
T2 construct: CHO cells stably expressing human ASIC3 (NM_004769.1)
T2 sequence (Q9UHC3 1-531): T1 sequence (Q9UHC3 1-531 E416Q) with Q416E
As to the kind of experiment: Time-dependence of WRPRFa wash off from activated (pH 6.3) and resting (pH 8.0) ASIC3. The protocol: Next, we assessed the rate at which WRPRFa leaves the channel from the activated and closed states. We preincubated cells with WRPRFa to load channels with peptide, then used two different protocols to remove the peptide. For dissociation from the activated state, we preincubated cells at pH 8.0 with 30 µM WRPRFa, then continuously applied pH 6.3 without WRPRFa to activate the channels while washing off bound peptide. HEK cells poorly tolerate long periods of acid application and sodium influx, so acid application was kept to 1 min. […] The first decrease of current likely arose from desensitization of unbound channels, and possibly also from an initial dissociation of peptide from activated channels, which subsequently desensitized.
For dissociation from resting state channels, we continuously applied pH 8.0 without peptide to remove WRPRFa. Every 20 s the cells were given a 5 s application of pH 6.3 to quantify the remaining sustained current. A 5 s activation was used to minimize wash-off from the activated state, which was deemed negligible based on the observed off-rate under the pH 6.3 condition. The sustained current was about 95% gone after 3 min, with a time constant of 43.5 s (95% CI: 39.0–48.4 s) (Fig. 3D and E). […]

For assay [2], the target named is T2, human ASIC3. As to the kind of experiment: pH-dependence of steady-state desensitization (SSD) of ASIC3. The following applies: conditioning pH 7.0, 30 µM. The method, then:
Lastly, we tested the effect of 30 µM WRPRFa on SSD of ASIC3. First, we sought to determine if, like activation, WRPRFa also changed the pH-dependence of steady-state desensitization for ASIC3. We preconditioned cells at pH 8.0–7.0 for 20 s to elicit SSD, followed immediately by a test pulse to pH 6.3 (Fig. 7F and G) to measure the fraction of channels that were not desensitized. The current evoked by each pH 6.3 test pulse was normalized to the pH 6.3 pulse following pH 8.0 conditioning and plotted against the conditioning pH to determine the pH-dependence of SSD. For untreated cells, the peak current (Ipk) was recorded, and for WRPRFa-treated cells, the current 3 s after the peak (I3s) was used. Untreated channels were completely desensitized at pH 7.0, while the WRPRFa-treated channels reached a plateau at pH 7.0 with about 30% of channels desensitized. […] The 0.11 unit shift is larger than that reported for RPRFa (0.03 unit shift)[30].

Changes are numbered by the printed parent chain. pEC50: −log10 of the molar value. Where no end group is shown, it is not given here.

Take WRPRF-NH2 [WRPRFa]: the pEC50 (in general, the negative decadic logarithm of the EC50, by convention in mol/L) on ASIC3 E416Q was 5.61. In addition, on human ASIC3 [1] (activated state wash off), the “current decrease within first 10 s at pH 6.3” value was “about 22%”. Moreover, the “sustained current gone after 3 min” value on human ASIC3 [1] (pH 8.0 wash off) is listed as “about 95%”. Also, the “channels desensitized at plateau” value on human ASIC3 [2] is “about 30%”.
